Results: patent US20240293387A1, “Methods of Treating Fabry Disease in Pediatric Patients” (Amicus Therapeutics, Inc., priority 2021, published 2024)
Read-outs that look alike come from different tables or passages of the source.

Legend:
[1] = AT1001-020 Stage 1 pharmacokinetics (sparse plasma sampling, LC-MS/MS, popPK); type: in vivo, human
Protocol: Migalastat levels can be measured via methods known in the art. For example, if measuring migalastat from tissue samples, tissue aliquots may be homogenized (7 μL water per 1 mg tissue) using a homogenizer (e.g., FastPrep-24 from MP Biomedical, Irvine, CA). Microcentrifuge tubes containing 100 μl of the tissue homogenate or 50 μl of plasma may then be spiked with 500 ng/ml 13C d2-AT1001 HCl internal standard (manufactured by MDS Pharma Services). A 600 μl volume of 5 mM HCl in 95/5 MeOH:H2O can then be added and the tubes vortexed for 2 minutes, followed by centrifugation at 21000×g for 10 minutes at room temperature. […] After several wash steps and elution into a clean, 96-well plate, the extracts may be dried down under N2 and reconstituted with mobile phase A. Migalastat levels can then be determined by liquid chromatography-tandem mass spectroscopy (LC-MS/MS) (e.g., LC: Shimadzu; MS/MS: ABSciex API 5500 MS/MS). […] The following precursor ion->product ion transitions may be monitored: mass/charge (m/z) 164.1→m/z 80.1 for migalastat and m/z 167.1→m/z 83.1 for the internal standard. […] The ratio of the area under the curve for migalastat to that of the internal standard is then determined and final concentrations of migalastat in each sample calculated using the linear least squares fit equation applied to the calibration curve. […]
Plasma samples were analyzed using the LC-MS/MS method. […]

[2] = system: patients with Fabry disease with amenable mutations; type: in vivo, human
Protocol: These analyses included data from 4 Phase 2 and 4 Phase 3 clinical trials with the data cutoff of Feb.
FAB-CL-202 (NCT00283959), FAB-CL-203 (NCT00283933), and FAB-CL-204 (NCT00304512) were phase 2, open-label, noncomparative studies that evaluated the safety, tolerability, pharmacokinetics (PK), and pharmacodynamics (PD) of migalastat (dose range: 50-250 mg) in patients with Fabry disease.
FAB-CL-205 (NCT0052607) was a phase 2, long-term, open-label extension (OLE) study for patients completing phase 2 clinical trials, including FAB-CL-202, FAB-CL-203, and FAB-CL-204. The study included a period with migalastat 150 mg every other day (QOD), then a dose-escalation period, followed by 150 mg QOD.
FACETS (AT1001-011, NCT00925301) was a phase 3, placebo-controlled study designed to evaluate the efficacy, safety, and PD of 6 months of migalastat 150 mg QOD versus placebo, followed by an 18-month open label extension (OLE) of migalastat in ERT-naive patients with Fabry disease and migalastat-amenable GLA variants.
AT1001-041 (NCT01458119) was a long-term OLE study evaluating the long-term safety and efficacy of migalastat in patients completing FAB-CL-205, AT1001-011, or AT1001-012
AT1001-042 (NCT02194985) is an ongoing, long-term OLE study evaluating the long-term safety and efficacy of migalastat in patients who participated in AT1001-012 or AT1001-041.
The analysis evaluates CBV events reported as treatment-emergent adverse events (TEAEs) during migalastat 150 mg QOD treatment in patients with amenable mutations in phase 2 and phase 3 clinical trials.
CBV events were identified by searching medical history and TEAE listings with stroke-related terms, including brain stem ischemia, cerebral infarction, cerebral hemorrhage, cerebral ischemia, cerebrovascular accident, embolic stroke, and TIA.
Only amenable patients who received at least 1 dose of migalastat 150 mg QOD were included in this analysis.

[3] = 150 mg QOD, FAB-CL 202, 203, 204, and 205 (n = 17)

## OC[C@H]1NC[C@H](O)[C@@H](O)[C@H]1O [migalastat, (2R,3S,4R,5S)-2-(hydroxymethyl) piperdine-3,4,5-triol]
[1]; 123 mg capsule QOD
  Cmax levels observed in the pediatric patients versus adults in study AT1001-011: in line with the Cmax levels observed in adults patients
[1]; 123 mg capsule q.o.d., adolescent patients (n=9)
  Exposure in adults and adolescents weighing >45 kg (popPK): comparable
[2]; 150 mg QOD, ATTRACT (n = 49)
  Any CBV event during treatment, unique patients: 2 (4%)
  Brain stem ischemia during treatment, patients: 0
  Cerebral hemorrhage during treatment, patients: 0
  Cerebral infarction during treatment, patients: 0
  Cerebral ischemia during treatment, patients: 0
  Cerebrovascular accident during treatment, patients: 0
  Embolic stroke during treatment, patients: 0
  Transient ischemic attack during treatment, patients: 2 (4%)
[2]; [3]
  Any CBV event during treatment, unique patients: 3 (18%)
  Brain stem ischemia during treatment, patients: 0
  Cerebral hemorrhage during treatment, patients: 0
  Cerebral infarction during treatment, patients: 1 (6%)
  Cerebral ischemia during treatment, patients: 1 (6%)
  Cerebrovascular accident during treatment, patients: 1 (6%)
  Embolic stroke during treatment, patients: 0
  Transient ischemic attack during treatment, patients: 1 (6%)
[2]; 150 mg QOD, FACETS (n = 48)
  Any CBV event during treatment, unique patients: 3 (6%)
  Brain stem ischemia during treatment, patients: 1 (2%)
  Cerebral hemorrhage during treatment, patients: 1 (2%)
  Cerebral infarction during treatment, patients: 0
  Cerebral ischemia during treatment, patients: 0
  Cerebrovascular accident during treatment, patients: 0
  Embolic stroke during treatment, patients: 0
  Transient ischemic attack during treatment, patients: 1 (2%)
[2]; 150 mg QOD, N = 114
  Number of CBV events reported during treatment: 11
[2]; 150 mg QOD, Total (N = 114)
  Brain stem ischemia during treatment, patients: 1 (1%)
  Cerebral hemorrhage during treatment, patients: 1 (1%)
  Cerebral infarction during treatment, patients: 1 (1%)
  Cerebral ischemia during treatment, patients: 1 (1%)
  Cerebrovascular accident during treatment, patients: 1 (1%)
  Embolic stroke during treatment, patients: 0
  Transient ischemic attack during treatment, patients: 4 (4%)
[2]; 150 mg QOD, of 11 CBV events
  CBV events categorized as serious adverse events (SAE): Seven
  CBV events considered related to treatment: None
  CBV events mild or moderate in severity: 82%
  CBV events that led to treatment discontinuation: Two
[2]; 8 patients with CBV events
  Time on migalastat 150 mg QOD at first event onset, mean (SD): 1.1 (1.1) years
[2]; among the 16 patients with pre-migalastat CBV event
  Patients with pre-migalastat CBV event who did not experience new CBV event during treatment: 10 (63%)
[2]; average of 4 years of migalastat
  Overall incidence of CBV events during migalastat treatment: low
